Results taken from US6569805B1, “Herbicidal compositions” (Aventis CropScience GmbH, priority 1999, dated 2003).
Values joined by “and” are separate entries in the source; they are usually repeats but may differ in a detail not shown here. Identical values can stand only once.

Tests used:
Format in all cases: in vivo
Cyperus esculentus = assay: Greenhouse test under paddy rice conditions, visual scoring about 3 weeks after application (Example 4); conditions: herbicide 0.004 kg/ha without vegetable oil
Method: (§1) Rice, and Cyperus esculentus as typical harmful plant, were grown in a greenhouse under paddy rice conditions (flooding level of the water 2-3 cm) in sealed plastic pots and sprayed with an active substance preparation at an application rate of (converted) 600 l/ha. The test plants were then placed in the greenhouse under optimal growth conditions and kept like this over the entire test period. Approximately 3 weeks after the application, they were evaluated by means of visually scoring the damage to the plants in comparison with the untreated control, using the following scheme: 100%=total destruction, 0%=no action. The test results are shown in the table hereinbelow, the action of the herbicide/safener combination and of the vegetable oil when used separately being stated in brackets: […]

Rice = assay: as above; conditions: crop plant, herbicide 0.004 kg/ha without vegetable oil
Method: as §1

Chenopodium album = assay: Greenhouse pot test, post-emergence spray, damage evaluated visually 2-3 weeks after treatment (Example 3); conditions: herbicide 0.015 kg/ha without vegetable oil
Method: (§2) Seeds or rhizome pieces of monocotyledonous and dicotyledonous harmful plants and useful plants were placed in sandy loam in pots of diameter 9 to 13 cm and covered with soil. The pots were kept in a greenhouse under optimal conditions. In the two- to three-leaf stage, i.e. approximately three weeks after cultivation has begun, the test plants were treated with the herbicides and vegetable oil in the form of aqueous dispersions or suspensions or emulsions and the green parts of the plant were sprayed with various dosage rates at an application rate of (converted) 300 l of water/ha. To grow the plants further, the pots were kept in the greenhouse under optimal conditions. The damage to the useful plants and harmful plants was evaluated visually 2-3 weeks after the treatment using the following scheme: 100%=total destruction, 0%=no action. The test results are shown in the table hereinbelow, the action of the herbicide/safener combination and of the vegetable oil when used separately being stated in brackets: […]

Echinochloa crus galli = assay: as above; conditions: herbicide 0.015 kg/ha without vegetable oil
Method: as §2

Sorghum halepense = assay: as above; conditions: herbicide 0.015 kg/ha without vegetable oil
Method: as §2

SMILES	CYPES Action (%), herbicide used separately (first value in brackets) (Cyperus esculentus)	Rice Action (%), herbicide used separately (first value in brackets) (Rice)	CHEAL Action (%), herbicide used separately (first value in brackets) (Chenopodium album)	ECHCG Action (%), herbicide used separately (first value in brackets) (Echinochloa crus galli)	SORHA Action (%), herbicide used separately (first value in brackets) (Sorghum halepense)
CCOc1ccccc1OS(=O)(=O)NC(=O)Nc1nc(OC)cc(OC)n1 [A13, 1-(4,6-dimethoxypyrimidin-2-yl)-3-(2-ethoxyphenoxysulfonyl)urea]	35%	0 (0 + 0) %	–	–	–
COc1cc(OC)nc(NC(=O)NS(=O)(=O)c2ncccc2C(=O)N(C)C)n1 [V1, Nicosulfuron]	–	–	(0 + 0) %	0 (0 + 0) % and 0%	(0 + 0) %
